From ChEMBL document CHEMBL1201862, “PubChem BioAssay data set” (2004)
Activity calls are given as the source filed them.

Tests used:
Vero [1] = test: cells; assay type: functional, cell-based; conditions: Chlorocebus sabaeus
[2] = molecular target: T1, Heat shock factor protein 1 (Mus musculus, UniProt P38532); test: decrease of HSF1-responsive luciferase luminescence – cell-based, NIH3T3, dose retest, confirmation (AID 2382); assay type: functional;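 note: NIH3T3 fibroblasts with HSF1-driven luciferase reporter stressed by proteasome inhibitor MG132; luminescence from HSF1-driven luciferase expression after 8 hours of MG132 stress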
T1 sequence (P38532 whole entry): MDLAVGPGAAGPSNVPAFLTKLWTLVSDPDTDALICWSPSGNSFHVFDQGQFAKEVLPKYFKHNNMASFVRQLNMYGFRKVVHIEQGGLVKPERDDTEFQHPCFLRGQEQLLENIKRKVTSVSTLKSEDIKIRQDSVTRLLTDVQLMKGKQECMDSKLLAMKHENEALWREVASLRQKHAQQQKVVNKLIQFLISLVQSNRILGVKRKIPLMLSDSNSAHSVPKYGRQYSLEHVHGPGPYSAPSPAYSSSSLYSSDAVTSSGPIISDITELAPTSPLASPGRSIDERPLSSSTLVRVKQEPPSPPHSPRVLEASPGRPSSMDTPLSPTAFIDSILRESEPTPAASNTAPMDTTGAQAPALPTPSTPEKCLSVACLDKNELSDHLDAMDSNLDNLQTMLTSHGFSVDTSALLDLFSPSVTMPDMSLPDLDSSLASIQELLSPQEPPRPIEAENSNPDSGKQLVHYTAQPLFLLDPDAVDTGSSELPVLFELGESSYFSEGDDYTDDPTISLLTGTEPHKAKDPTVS

[3] = molecular target: Luciferin 4-monooxygenase (Photinus pyralis, UniProt P08659); test: inhibition of purified Photinus pyralis luciferase – biochemical, luminescence, dose response (AID 1891)
[4] = Luminescence Cell-Based Dose Confirmation HTS to Identify Inhibitors of Platelet Dense Granule Release. [Related pubchem assays: 1663 (Primary HTS), 1678 (Summary of Project)]; assay type: functional
Vero [5] = test: cells; assay type: functional; conditions: Chlorocebus sabaeus
[6] = viability loss in HepG2 hepatoma cells – cell-based, ATP luminescence, cherry-pick, activator set 2, cytotoxicity control, dose response (AID 1053143); assay type: functional
[7] = molecular target: Induced myeloid leukemia cell differentiation protein Mcl-1 (Homo sapiens, UniProt Q07820); assay type: functional
[8] = molecular target: T2, Carboxy-terminal domain RNA polymerase II polypeptide A small phosphatase 1 (Homo sapiens, UniProt Q9GZU7); test: CTDSP1 inhibitors, concentration-response, biochemical, absorbance readout, ultra-high-throughput screen actives (AID 540297); assay type: functional
T2 sequence (Q9GZU7 whole entry): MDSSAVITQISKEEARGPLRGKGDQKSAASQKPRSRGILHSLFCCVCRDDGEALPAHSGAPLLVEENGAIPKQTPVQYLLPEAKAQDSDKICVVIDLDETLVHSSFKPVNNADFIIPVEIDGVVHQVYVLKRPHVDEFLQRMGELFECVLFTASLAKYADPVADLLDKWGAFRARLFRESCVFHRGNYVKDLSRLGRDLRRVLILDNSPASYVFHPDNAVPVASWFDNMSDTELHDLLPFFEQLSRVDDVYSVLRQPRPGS

[9] = reduction of Shn3 3'UTR-driven luciferase in osteoblasts – cell-based, Clone20 osteoblasts, firefly luciferase, cherry-picked, dose response (AID 624132); assay type: functional;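 note: firefly luciferase luminescence from reporter carrying the Shn3 3'UTR in osteoblasts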
[10] = loss of viability in HepG2 cells – cell-based, CellTiter-Glo, cherry-picked, cytotoxicity control for Shn3 inhibitor project, dose response (AID 624134); assay type: functional
[11] = non-specific 3'UTR reporter inhibition in Clone20-Shn3RL – cell-based, Renilla luciferase, cherry-picked, counter-screen for Shn3 inhibitor project, dose response (AID 624133); assay type: functional
Leucine aminopeptidase = molecular target: T3, Leucine aminopeptidase (Plasmodium falciparum 3D7, UniProt Q8IL11); test: P. falciparum M17LAP inhibitors, primary screen, biochemical, fluorogenic H-Leu-NHMec substrate, 1536-well (AID 1619); assay type: functional
T3 sequence (Q8IL11 whole entry): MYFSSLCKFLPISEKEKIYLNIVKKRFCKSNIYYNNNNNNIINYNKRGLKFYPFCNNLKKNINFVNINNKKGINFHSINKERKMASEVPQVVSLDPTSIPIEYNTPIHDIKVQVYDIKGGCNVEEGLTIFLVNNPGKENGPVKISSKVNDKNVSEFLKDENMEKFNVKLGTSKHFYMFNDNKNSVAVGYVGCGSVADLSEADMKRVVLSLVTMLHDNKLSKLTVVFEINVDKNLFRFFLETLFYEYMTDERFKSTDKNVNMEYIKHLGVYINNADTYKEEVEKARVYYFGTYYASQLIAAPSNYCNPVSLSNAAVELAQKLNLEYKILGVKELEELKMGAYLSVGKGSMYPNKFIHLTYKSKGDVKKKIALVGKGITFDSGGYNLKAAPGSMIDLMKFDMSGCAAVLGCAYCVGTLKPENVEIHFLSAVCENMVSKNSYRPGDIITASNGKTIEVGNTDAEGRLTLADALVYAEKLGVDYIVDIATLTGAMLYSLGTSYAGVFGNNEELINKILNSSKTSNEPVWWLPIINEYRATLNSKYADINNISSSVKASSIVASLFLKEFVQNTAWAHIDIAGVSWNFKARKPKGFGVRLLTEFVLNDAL

Cytochrome P450 2C19 = Cytochrome P450 2C19 (Homo sapiens, UniProt P33261); test: Cytochrome panel assay with activity outcomes. Panel member name: p450-cyp2c19 Compounds with AC50 equal or less than 10 uM are considered active; assay type: functional; conditions: read-out: AC50
Cytochrome P450 2D6 = Cytochrome P450 2D6 (Homo sapiens, UniProt P10635);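 note: CYP2D6 member of a cytochrome P450 panel assay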
Cytochrome P450 1A2 = molecular target: T4, Cytochrome P450 1A2 (Homo sapiens, UniProt P05177);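 note: PubChem cytochrome P450 panel assay, CYP1A2 panel member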
T4 sequence (P05177 whole entry): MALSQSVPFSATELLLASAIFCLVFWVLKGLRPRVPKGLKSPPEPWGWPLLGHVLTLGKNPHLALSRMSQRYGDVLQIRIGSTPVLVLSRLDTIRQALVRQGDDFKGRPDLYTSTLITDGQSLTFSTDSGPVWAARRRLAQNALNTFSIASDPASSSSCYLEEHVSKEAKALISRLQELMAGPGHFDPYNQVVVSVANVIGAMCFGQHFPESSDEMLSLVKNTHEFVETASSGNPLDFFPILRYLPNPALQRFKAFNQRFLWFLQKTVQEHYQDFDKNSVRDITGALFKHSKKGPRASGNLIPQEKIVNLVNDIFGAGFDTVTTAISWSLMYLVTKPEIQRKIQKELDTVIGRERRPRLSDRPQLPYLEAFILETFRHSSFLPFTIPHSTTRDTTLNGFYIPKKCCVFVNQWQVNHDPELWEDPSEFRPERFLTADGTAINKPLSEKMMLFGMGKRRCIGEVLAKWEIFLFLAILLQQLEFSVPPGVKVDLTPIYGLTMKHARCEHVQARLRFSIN

Cytochrome P450 2C9 = Cytochrome P450 2C9 (Homo sapiens, UniProt P11712)
[12] = molecular target: FAD-linked sulfhydryl oxidase ALR (Homo sapiens, UniProt P55789); test: ALR-catalysed DTT oxidation blockers – biochemical, H2O2 detection, luminescence, cherry-pick, dose response (AID 493248)
Genome polyprotein = Genome polyprotein (dengue virus type 2, UniProt P29990); test: flavivirus cap methylation enzyme inhibition – biochemical, confirmation dose response, primary screen (AID 588689); assay type: functional
Protein skinhead-1 = molecular target: T5, Protein skinhead-1 (Caenorhabditis elegans, UniProt P34707); assay type: functional
T5 sequence (P34707 whole entry): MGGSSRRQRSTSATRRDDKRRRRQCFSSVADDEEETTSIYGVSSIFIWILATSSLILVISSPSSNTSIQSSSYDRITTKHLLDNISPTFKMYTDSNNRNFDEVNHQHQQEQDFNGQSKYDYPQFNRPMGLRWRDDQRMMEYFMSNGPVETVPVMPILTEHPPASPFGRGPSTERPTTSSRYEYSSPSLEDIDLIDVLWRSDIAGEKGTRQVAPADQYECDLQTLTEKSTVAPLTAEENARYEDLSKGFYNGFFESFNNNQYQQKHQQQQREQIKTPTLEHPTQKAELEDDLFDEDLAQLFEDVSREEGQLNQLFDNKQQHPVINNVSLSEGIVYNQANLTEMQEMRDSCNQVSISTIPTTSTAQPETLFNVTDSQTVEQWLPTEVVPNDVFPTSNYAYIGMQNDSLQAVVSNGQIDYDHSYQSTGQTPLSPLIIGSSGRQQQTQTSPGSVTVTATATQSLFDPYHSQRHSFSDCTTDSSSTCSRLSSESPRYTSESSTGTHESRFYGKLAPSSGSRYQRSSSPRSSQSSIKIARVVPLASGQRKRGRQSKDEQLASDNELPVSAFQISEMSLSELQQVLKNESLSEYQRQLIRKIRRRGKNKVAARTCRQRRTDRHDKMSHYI

Fatty acid synthase [13] = molecular target: T6, Fatty acid synthase (Homo sapiens, UniProt P49327); test: inhibition of human FAS-TE enzyme activity – biochemical, endpoint fluorescence intensity, uHTS hits, dose response (AID 624327); assay type: functional;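 note: fluorescence from hydrolysis of an O-methyl fluorescein acyl ester substrate by the enzyme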
Fatty acid synthase [14] = molecular target: T6, Fatty acid synthase; test: inhibition of human FAS-TE enzyme activity – biochemical, kinetic fluorescence intensity, dose response (AID 624326); assay type: functional;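 note: rate of fluorescence rise from hydrolysis of a fluorogenic O-methyl fluorescein ester substrate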
[15] = blockers of HIV-1 envelope-mediated cell-cell fusion – cherry-pick, dose response (AID 652057); assay type: functional, cell-based
[16] = blockers of HIV-1 ZM109 envelope-driven cell-cell fusion – HeLa effector, CEM target cells, luciferase, cherry-pick, dose response (AID 652058); assay type: functional, cell-based;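 note: luciferase signal from HIV-1 Env mediated cell-cell fusion of effector and target cells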
[17] = off-target signal loss in HeLa-CEM21 co-culture – HeLa F-luc CTL cells, cherry-picked, counter-screen for HIV-1 Env fusion inhibitor project, dose response (AID 652040); assay type: functional, cell-based;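 note: potency for signal decrease marking cytotoxic or nonspecific inhibition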
[18] = HIV-1 AD8 envelope cell-cell fusion blockers – cherry-pick, dose response (AID 652062); assay type: functional, cell-based;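 note: luciferase signal from cell-cell fusion driven by HIV-1 clade B AD8 Env; potency is for inhibitors of fusion seen as a drop in luminescence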
[19] = general mammalian cell viability loss – activator set, cherry-pick, cytotoxicity control for miR-122 modulator project, dose response (AID 720690); assay type: functional, cell-based;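 note: HEK293T human cells scored for general mammalian cytotoxicity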
[20] = microbe, parasite or virus in culture; assay type: functional; conditions: Mycobacterium tuberculosis
cells [21] = assay type: functional, cell-based
cells [22] = assay type: functional, cell-based; remark: listed apart in the source
[23] = A549 cell cytotoxicity, dose response, cytotoxicity control, plate reader, cherry-pick, antagonist series (AID 743412); assay type: functional, cell-based
[24] = toxicity toward HepG2 liver cells – cell-based, plate reader, cherry-pick, antagonist series, cytotoxicity control, dose response (AID 743416); assay type: functional
[25] = blockers of bursicon-stimulated LGR2 cAMP reporter – cell-based, HEK293, CRE-luciferase reporter, cherry pick, set 2, dose response (AID 743343); assay type: functional;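 note: transfected cells were stimulated with diluted bursicon conditioned medium after compound addition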
[26] = blockade of melanocortin 4 receptor signaling – cell-based, plate reader, cherry pick, counter-screen for LGR2 antagonist project, dose response (AID 743444); assay type: functional;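 note: transfected HEK 293 cells stimulated with alpha-MSH peptide; potency of inhibitors of the alpha-MSH evoked signal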
[27] = viability loss in HEK293 cells – cell-based, plate reader, cherry-picked samples, cytotoxicity control, dose response (AID 743446); assay type: functional

Sequence of Cytochrome P450 2C9 (P11712 whole entry): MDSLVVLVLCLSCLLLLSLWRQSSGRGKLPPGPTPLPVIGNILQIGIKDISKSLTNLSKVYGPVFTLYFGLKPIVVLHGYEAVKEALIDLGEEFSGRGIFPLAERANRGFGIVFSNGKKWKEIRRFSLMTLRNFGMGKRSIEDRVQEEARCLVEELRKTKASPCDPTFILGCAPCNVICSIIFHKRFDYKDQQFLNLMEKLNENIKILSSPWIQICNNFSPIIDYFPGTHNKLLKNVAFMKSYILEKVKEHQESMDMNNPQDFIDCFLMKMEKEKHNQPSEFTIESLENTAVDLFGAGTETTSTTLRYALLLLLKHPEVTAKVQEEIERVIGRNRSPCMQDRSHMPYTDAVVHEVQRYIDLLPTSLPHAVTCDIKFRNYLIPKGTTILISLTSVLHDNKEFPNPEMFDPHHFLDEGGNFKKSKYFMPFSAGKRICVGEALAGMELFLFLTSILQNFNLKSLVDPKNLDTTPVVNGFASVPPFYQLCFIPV
T6 sequence (P49327 whole entry): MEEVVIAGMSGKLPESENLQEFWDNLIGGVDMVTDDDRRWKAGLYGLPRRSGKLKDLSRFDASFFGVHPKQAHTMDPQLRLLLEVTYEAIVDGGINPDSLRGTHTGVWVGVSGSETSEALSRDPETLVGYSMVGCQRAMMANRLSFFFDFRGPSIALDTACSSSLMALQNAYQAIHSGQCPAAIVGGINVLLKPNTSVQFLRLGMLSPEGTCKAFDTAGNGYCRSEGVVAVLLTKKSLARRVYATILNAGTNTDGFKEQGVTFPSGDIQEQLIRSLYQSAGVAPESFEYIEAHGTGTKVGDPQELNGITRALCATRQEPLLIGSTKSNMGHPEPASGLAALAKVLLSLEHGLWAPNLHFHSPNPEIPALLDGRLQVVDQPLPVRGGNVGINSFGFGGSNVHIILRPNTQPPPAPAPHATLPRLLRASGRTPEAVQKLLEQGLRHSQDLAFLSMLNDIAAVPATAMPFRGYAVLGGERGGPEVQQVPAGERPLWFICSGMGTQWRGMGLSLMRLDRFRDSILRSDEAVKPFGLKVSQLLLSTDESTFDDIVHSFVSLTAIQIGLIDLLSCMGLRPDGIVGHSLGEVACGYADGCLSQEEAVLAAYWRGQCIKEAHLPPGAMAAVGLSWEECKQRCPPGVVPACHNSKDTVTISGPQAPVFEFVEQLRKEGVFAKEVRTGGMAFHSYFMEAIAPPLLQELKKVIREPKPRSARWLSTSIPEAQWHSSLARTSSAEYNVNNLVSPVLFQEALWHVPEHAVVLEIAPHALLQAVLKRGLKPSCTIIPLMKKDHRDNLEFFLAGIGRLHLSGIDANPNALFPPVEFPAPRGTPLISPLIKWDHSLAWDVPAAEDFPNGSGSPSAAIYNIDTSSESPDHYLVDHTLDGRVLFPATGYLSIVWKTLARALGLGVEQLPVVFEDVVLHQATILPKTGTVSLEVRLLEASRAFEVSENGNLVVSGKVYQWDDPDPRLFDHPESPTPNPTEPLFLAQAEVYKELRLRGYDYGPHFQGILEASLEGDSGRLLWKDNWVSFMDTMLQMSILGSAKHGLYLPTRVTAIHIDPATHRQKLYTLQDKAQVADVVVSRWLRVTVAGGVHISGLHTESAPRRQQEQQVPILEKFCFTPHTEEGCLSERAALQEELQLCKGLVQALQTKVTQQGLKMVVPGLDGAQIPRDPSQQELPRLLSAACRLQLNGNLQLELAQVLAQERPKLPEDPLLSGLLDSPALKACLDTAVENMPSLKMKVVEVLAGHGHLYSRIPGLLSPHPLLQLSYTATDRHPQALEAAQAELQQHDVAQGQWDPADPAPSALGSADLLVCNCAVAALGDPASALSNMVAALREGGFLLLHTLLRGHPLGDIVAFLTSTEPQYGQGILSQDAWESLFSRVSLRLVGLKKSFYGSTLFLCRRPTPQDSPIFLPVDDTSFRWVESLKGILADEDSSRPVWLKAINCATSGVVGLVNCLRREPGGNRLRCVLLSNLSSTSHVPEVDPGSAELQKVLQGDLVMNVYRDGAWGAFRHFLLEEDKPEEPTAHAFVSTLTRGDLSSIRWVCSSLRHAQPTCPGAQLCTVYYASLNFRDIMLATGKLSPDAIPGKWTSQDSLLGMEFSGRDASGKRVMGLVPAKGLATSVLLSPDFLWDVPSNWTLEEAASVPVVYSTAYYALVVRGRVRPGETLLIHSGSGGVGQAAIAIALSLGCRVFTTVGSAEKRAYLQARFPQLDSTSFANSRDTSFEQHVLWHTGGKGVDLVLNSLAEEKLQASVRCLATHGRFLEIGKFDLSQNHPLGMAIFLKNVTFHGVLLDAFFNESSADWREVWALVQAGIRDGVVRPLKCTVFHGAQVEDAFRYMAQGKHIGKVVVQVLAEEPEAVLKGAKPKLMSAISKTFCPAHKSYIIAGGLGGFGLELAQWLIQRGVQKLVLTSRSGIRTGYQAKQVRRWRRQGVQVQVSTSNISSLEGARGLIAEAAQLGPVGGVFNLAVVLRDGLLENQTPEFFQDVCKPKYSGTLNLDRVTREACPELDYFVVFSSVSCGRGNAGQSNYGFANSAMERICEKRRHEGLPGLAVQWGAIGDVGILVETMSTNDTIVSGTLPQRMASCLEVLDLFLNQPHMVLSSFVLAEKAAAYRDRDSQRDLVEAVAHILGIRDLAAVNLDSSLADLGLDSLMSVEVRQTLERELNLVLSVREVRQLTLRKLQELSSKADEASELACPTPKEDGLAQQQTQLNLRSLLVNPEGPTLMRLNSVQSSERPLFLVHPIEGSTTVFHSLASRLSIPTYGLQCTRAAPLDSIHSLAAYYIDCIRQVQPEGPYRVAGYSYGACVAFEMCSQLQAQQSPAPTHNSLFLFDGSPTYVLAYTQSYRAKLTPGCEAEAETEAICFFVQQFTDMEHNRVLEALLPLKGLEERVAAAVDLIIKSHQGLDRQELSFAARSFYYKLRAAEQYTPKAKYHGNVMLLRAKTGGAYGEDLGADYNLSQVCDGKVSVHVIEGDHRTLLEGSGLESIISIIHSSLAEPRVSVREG
Sequence of Cytochrome P450 2C19 (P33261 whole entry): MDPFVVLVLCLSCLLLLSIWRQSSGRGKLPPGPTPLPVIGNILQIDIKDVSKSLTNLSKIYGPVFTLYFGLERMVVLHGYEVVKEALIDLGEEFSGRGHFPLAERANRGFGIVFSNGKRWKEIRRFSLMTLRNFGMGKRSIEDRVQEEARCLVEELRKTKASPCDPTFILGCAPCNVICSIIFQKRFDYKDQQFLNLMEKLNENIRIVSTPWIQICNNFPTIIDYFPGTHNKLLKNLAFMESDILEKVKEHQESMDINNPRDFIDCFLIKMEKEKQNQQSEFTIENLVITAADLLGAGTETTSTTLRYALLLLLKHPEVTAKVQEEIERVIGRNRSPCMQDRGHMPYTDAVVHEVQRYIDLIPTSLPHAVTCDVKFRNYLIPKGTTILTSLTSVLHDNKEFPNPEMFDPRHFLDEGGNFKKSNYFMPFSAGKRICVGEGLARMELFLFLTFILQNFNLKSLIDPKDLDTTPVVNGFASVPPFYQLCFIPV
Sequence of Luciferin 4-monooxygenase (P08659 whole entry): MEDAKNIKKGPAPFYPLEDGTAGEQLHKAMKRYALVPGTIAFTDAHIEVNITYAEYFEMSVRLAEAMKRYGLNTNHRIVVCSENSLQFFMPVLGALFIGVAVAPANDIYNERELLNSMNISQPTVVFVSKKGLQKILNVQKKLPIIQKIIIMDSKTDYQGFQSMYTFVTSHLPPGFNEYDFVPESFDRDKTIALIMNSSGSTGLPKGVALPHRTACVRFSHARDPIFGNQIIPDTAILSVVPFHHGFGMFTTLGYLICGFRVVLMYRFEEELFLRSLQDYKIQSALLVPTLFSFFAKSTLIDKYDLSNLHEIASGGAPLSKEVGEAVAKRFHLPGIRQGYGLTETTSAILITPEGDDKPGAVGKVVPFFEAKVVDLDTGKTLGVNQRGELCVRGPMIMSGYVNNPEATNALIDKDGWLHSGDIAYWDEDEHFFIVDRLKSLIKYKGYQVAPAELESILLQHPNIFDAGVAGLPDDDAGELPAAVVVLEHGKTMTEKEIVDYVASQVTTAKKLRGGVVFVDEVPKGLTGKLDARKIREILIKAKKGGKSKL
Sequence of FAD-linked sulfhydryl oxidase ALR (P55789 whole entry): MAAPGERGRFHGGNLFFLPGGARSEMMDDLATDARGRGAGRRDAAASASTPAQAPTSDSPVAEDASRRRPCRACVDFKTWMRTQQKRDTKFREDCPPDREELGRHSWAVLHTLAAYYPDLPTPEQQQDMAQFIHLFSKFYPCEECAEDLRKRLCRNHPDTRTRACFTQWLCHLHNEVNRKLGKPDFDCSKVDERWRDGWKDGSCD
Sequence of Induced myeloid leukemia cell differentiation protein Mcl-1 (Q07820 whole entry, the tested form may be a part): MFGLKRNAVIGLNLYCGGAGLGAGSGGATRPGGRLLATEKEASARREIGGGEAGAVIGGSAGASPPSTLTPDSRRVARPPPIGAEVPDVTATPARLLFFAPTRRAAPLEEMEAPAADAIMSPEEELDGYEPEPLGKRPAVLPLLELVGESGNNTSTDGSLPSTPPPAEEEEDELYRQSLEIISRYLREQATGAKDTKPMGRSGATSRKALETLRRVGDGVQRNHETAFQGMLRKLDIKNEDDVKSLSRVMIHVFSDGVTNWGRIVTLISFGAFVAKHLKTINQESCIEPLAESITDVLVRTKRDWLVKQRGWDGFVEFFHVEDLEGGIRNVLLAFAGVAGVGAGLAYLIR

Cc1ccc(C(=O)C[n+]2ccccc2C)cc1[N+](=O)[O-]
IC50 (Vero [1]): 5.84 µM (active)

N=c1c2c(ncn1CCCO)Oc1c(ccc3ccccc13)C2c1ccccc1 (stereo not given)
EC50 [2]: > 195 µM (not active) | EC50 [3]: > 112 µM (not active) | EC50 [4]: > 112 µM (not active) | CC50 (Vero [5]): 15.4 µM (active) | AC50 [6]: 26 µM (active)

COc1ccc(C(CC(=O)N2CCCC2)c2c(OC)cc(OC)c3c(-c4ccccc4)cc(=O)oc23)cc1 (stereo not given)
IC50 [7]: 4.62 µM (active) | IC50 [8]: 9.82 µM (active)

CN(C)C1=NC[C@H](Cc2ccccc2)N1CCCC1CCCC1
AC50 [9]: 2.63 µM (active) | AC50 [10]: > 70 µM (inactive) | AC50 [11]: 2.5 µM (active)

Cc1occc1C(=O)Nc1sc2c(c1C(N)=O)CCCCC2
IC50 (Leucine aminopeptidase): 54.6 µM (active)

COc1ccccc1/C=C/C=N/N1CCN(Cc2ccc(Cl)cc2)CC1.Cl
AC50 (Cytochrome P450 2C19): 6.31 µM (inconclusive) | AC50 (Cytochrome P450 2D6): 8.91 µM (inconclusive) | AC50 (Cytochrome P450 1A2): 15.8 µM (inconclusive) | AC50 (Cytochrome P450 2C9): inconclusive

O=C(CCN1C(=O)/C(=C/c2ccccc2Cl)SC1=S)Nc1ccccc1C(=O)O
AC50 [12]: 2.46 µM (active) | IC50 (Genome polyprotein): 77.7 µM (active) | IC50 (Protein skinhead-1): > 100 µM (inactive) | IC50 (Fatty acid synthase [13]): 6.5 µM (active) | IC50 (Fatty acid synthase [14]): 5.37 µM (active)

COC(=O)c1c(C)oc(C)c1S(=O)(=O)NC(c1ccccc1)c1ccccc1
AC50 [15]: 5.64 µM (active) | AC50 [16]: 6.38 µM (active) | AC50 [17]: 6.55 µM (active) | AC50 [18]: 6.05 µM (active)

Cc1ccccc1-c1ccc([C@@H]2[C@@H](CO)N3CCCCN(C(=O)Nc4ccc(F)cc4)C[C@@H]23)cc1
AC50 [19]: 31.1 µM (active)

Oc1cc(Nc2ccccc2)cc2cccnc12
CC50 [20]: 7.2 µM (active) | AC50 [9]: 1.79 µM (active) | AC50 [10]: 36 µM (active) | AC50 [11]: 6.62 µM (active)

O=C(Nc1ncccc1O)c1ccc2c(c1)OCO2
EC50 (cells [21]): 99.2 µM (active) | EC50 (cells [22]): 51.7 µM (active) | AC50 [6]: 26 µM (active)

CCC1=C(CC2NCCc3ccccc32)CC2c3cc(OC)c(OC)cc3CCN2C1 (stereo not given)
IC50 (Vero [1]): > 25 µM (active) | CC50 (Vero [5]): 5.14 µM (active) | AC50 [23]: 2.13 µM (active) | AC50 [24]: 4.16 µM (active) | AC50 [25]: 6.49 µM (active) | AC50 [26]: 7.63 µM (active) | AC50 [27]: 33.6 µM (active)

CC(C)CN(C(=O)C(c1ccccc1)c1ccccc1)c1c(N)n(CC(C)C)c(=O)[nH]c1=O
AC50 [15]: 1.62 µM (active) | AC50 [16]: 0.619 µM (active) | AC50 [17]: 1.72 µM (active) | AC50 [18]: 1.91 µM (active)

COc1ccc(OC)c(C(=O)CN2C(=O)NC(C)(c3ccccc3)C2=O)c1 (stereo not given)
AC50 (Cytochrome P450 2C9): inconclusive

COc1ccccc1NC(=O)Nc1nc(C(N)Cc2ccc(C(F)(F)F)cc2)cs1 (stereo not given)
AC50 [9]: 10.3 µM (active) | AC50 [10]: 25.1 µM (active) | AC50 [11]: 24 µM (active)

COc1cc(NC(=O)c2cccs2)ccc1NC(=O)c1ccco1
AC50 [6]: 12 µM (active)

Nc1ncnc2c1ncn2[C@@H]1CCCO1
AC50 (Cytochrome P450 2C9): inconclusive
